Reference: PubChem BioAssay AID328 (DTP/NCI, 2004)
“And” between values parts separate entries of the source, which are not always exact repeats. Equal entries are not always repeated. Toxic doses and inconclusive results are not listed.

Tested on: BDF1 mice, P388 leukemia ip, median survival T/C
Test: NCI In Vivo Anticancer Drug Screen. Data for tumor model P388 Leukemia (intraperitoneal) in B6D2F1 (BDF1) mice
Conditions: endpoint: median survival time, higher = longer survival
Summary of the method: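 Steps: implant the tumour, treat one group with compound and another with vehicle, record survival, then divide treated by control.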

[1] = dose: 50.0 mg/kg/injection, schedule: Q01DX009 (ip), vehicle: saline with Tween-80
[2] = dose: 100.0 mg/kg/injection, schedule: Q01DX009 (ip), vehicle: saline with Tween-80
[3] = dose: 200.0 mg/kg/injection, schedule: Q01DX009 (ip), vehicle: saline with Tween-80
[4] = dose: 100.0 mg/kg/injection, schedule: Q04DX003 (ip), vehicle: saline with Tween-80
[5] = dose: 50.0 mg/kg/injection, schedule: Q01DX009 (ip), vehicle: saline

## C=CC(C)(O)CCC1C(=C)CCC2C(C)(C)CCCC12C (centres undefined)
dose: 100.0 mg/kg/injection, schedule: Q01DX009 (ip), vehicle: Klucel (hydroxypropylcellulose) (HPC)
  T/C: 90 % of control
dose: 100.0 mg/kg/injection, schedule: Q04DX003 (ip), vehicle: Klucel (hydroxypropylcellulose) (HPC)
  T/C: 95 % of control
dose: 200.0 mg/kg/injection, schedule: Q01DX009 (ip), vehicle: Klucel (hydroxypropylcellulose) (HPC)
  T/C: 86 % of control
dose: 200.0 mg/kg/injection, schedule: Q04DX003 (ip), vehicle: Klucel (hydroxypropylcellulose) (HPC)
  T/C: 100 % of control
dose: 400.0 mg/kg/injection, schedule: Q01DX009 (ip), vehicle: Klucel (hydroxypropylcellulose) (HPC)
  T/C: 95 % of control
dose: 400.0 mg/kg/injection, schedule: Q04DX003 (ip), vehicle: Klucel (hydroxypropylcellulose) (HPC)
  T/C: 95 % of control

## C[Si](C)(C)C1CO1 (centres undefined)
[1]
  T/C: 106 % of control
[2]
  T/C: 106 % of control
[3]
  T/C: 102 % of control

## c1cc[c]([Pb]([c]2ccccc2)[c]2ccccc2)cc1.c1cc[c]([Pb]([c]2ccccc2)[c]2ccccc2)cc1
dose: 3.13 mg/kg/injection, schedule: Q01DX009 (ip), vehicle: saline with Tween-80
  T/C: 109 % of control
dose: 6.25 mg/kg/injection, schedule: Q01DX009 (ip), vehicle: saline with Tween-80
  T/C: 104 % of control
dose: 12.5 mg/kg/injection, schedule: Q01DX009 (ip), vehicle: saline with Tween-80
  T/C: 101 % of control
dose: 25.0 mg/kg/injection, schedule: Q01DX009 (ip), vehicle: saline with Tween-80
  T/C: 104 % of control

## COC1CCC(OC2C(C)C(O)(C(C)C(=O)O)OC(CC3CC(OC)C(C)C4(O3)OC(C)(C3CCC(C5CCC(C6OC(C)(O)C(C)C(OC)C6C)O5)O3)C(OC)C4C)C2(C)OC)OC1C (centres undefined)
dose: 0.62 mg/kg/injection, schedule: Q01DX009 (ip), vehicle: saline
  T/C: 94 % of control
dose: 1.25 mg/kg/injection, schedule: Q01DX009 (ip), vehicle: saline
  T/C: 96 % of control

## Cc1cccc(NC(=O)C2CCC(C)(C(=O)O)C2(C)C)c1 (centres undefined)
dose: 50.0 mg/kg/injection, schedule: Q04DX003 (ip), vehicle: saline with Tween-80
  T/C: 100 % of control
[4]
  T/C: 95 % of control
dose: 200.0 mg/kg/injection, schedule: Q04DX003 (ip), vehicle: saline with Tween-80
  T/C: 104 % of control

## CCCCNC1=CC(=O)CC(C)(C)C1
[5]
  T/C: 105 % of control
dose: 100.0 mg/kg/injection, schedule: Q01DX009 (ip), vehicle: saline
  T/C: 111 % of control
dose: 200.0 mg/kg/injection, schedule: Q01DX009 (ip), vehicle: saline
  T/C: 107 % of control

## CC(=O)OCC(COC(C)=O)=C1N=C(c2ccccc2)OC1=O
[1]
  T/C: 107 % of control
[2]
  T/C: 96 % of control
[4]
  T/C: 118 % of control
[3]
  T/C: 115 % of control
dose: 400.0 mg/kg/injection, schedule: Q04DX003 (ip), vehicle: saline with Tween-80
  T/C: 118 % of control

## N=C1N=C(C(F)(F)F)N=C1c1[nH]c(C(F)(F)F)nc1N
dose: 3.12 mg/kg/injection, schedule: Q01DX009 (ip), vehicle: water
  T/C: 105 % of control
dose: 6.25 mg/kg/injection, schedule: Q01DX009 (ip), vehicle: water
  T/C: 105 % of control
dose: 12.5 mg/kg/injection, schedule: Q01DX009 (ip), vehicle: water
  T/C: 113 % of control
dose: 25.0 mg/kg/injection, schedule: Q01DX009 (ip), vehicle: water
  T/C: 103 % of control and 105 % of control
dose: 25.0 mg/kg/injection, schedule: Q04DX003 (ip), vehicle: water
  T/C: 100 % of control
dose: 50.0 mg/kg/injection, schedule: Q01DX009 (ip), vehicle: water
  T/C: 92 % of control
dose: 50.0 mg/kg/injection, schedule: Q04DX003 (ip), vehicle: water
  T/C: 99 % of control
dose: 100.0 mg/kg/injection, schedule: Q01DX009 (ip), vehicle: water
  T/C: 106 % of control
dose: 100.0 mg/kg/injection, schedule: Q04DX003 (ip), vehicle: water
  T/C: 98 % of control
dose: 200.0 mg/kg/injection, schedule: Q01DX009 (ip), vehicle: water
  T/C: 97 % of control
dose: 200.0 mg/kg/injection, schedule: Q04DX003 (ip), vehicle: water
  T/C: 94 % of control
dose: 400.0 mg/kg/injection, schedule: Q01DX009 (ip), vehicle: water
  T/C: 104 % of control
dose: 400.0 mg/kg/injection, schedule: Q04DX003 (ip), vehicle: water
  T/C: 109 % of control

## COc1cccc2c1C(=O)c1c(O)c3c(c(O)c1C2=O)CC(O)(/C(C)=N/NC(=O)CCCCCCC(=O)N/N=C(\C)C1(O)Cc2c(O)c4c(c(O)c2C(OC2CC(N)C(O)C(C)O2)C1)C(=O)c1c(OC)cccc1C4=O)CC3OC1CC(N)C(O)C(C)O1 (centres undefined)
dose: 2.0 mg/kg/injection, schedule: Q01DX009 (ip), vehicle: water
  T/C: 165 % of control
dose: 4.0 mg/kg/injection, schedule: Q01DX009 (ip), vehicle: water
  T/C: 201 % of control

## COC1=NCN=C2SC=C(N)N=C12
dose: 12.5 mg/kg/injection, schedule: Q01DX009 (ip), vehicle: saline
  T/C: 100 % of control
dose: 25.0 mg/kg/injection, schedule: Q01DX009 (ip), vehicle: saline
  T/C: 98 % of control
[5]
  T/C: 105 % of control
